# Measured values reported in patent US20020045780A1, “Biologically active spermidine analogues, pharmaceutical compositions and methods of treatment” (priority 1997, published 2002).
# Entries after “also recorded” stand apart in the source; their conditions may differ. Structures can show the parent of a compound that is named as a salt. Where two headings read alike, the source gives them in different places.
# How the values were obtained:
# L1210 cells [1] = assay: L1210 growth inhibition, IC50 determination; type: cell-based, murine; details: Mus musculus
# Procedure: Murine L1210 leukemia cells (ATCC CCL 219) were maintained in logarithmic growth in RPMI-1640 medium containing 10% fetal calf serum or a semi-synthetic equivalent, NuSerum, 2% HEPES-MOPS buffer and 1 mM aminoguanidine.
# [2] = system: polyamine transport apparatus; assay: Competitive uptake determination: inhibition of [3H]spermidine transport into L1210 cells; type: cell-based, murine; details: analogue inhibition of spermidine transport
# Procedure: The ability of the norspermidines, spermidines, homospermidines, 4,5- and 5,5-triamines to compete with radiolabeled SPD for uptake was evaluated (Table 1). The general trend is that the terminally alkylated triamines have higher Ki values than the unalkylated triamines and are thus less easily taken up by the cell. […] This is not completely true with the norspermidines and the 5,5 triamines. The relationship holds with methyl and ethyl but not for the propyl of the latter two systems. Finally, the number of methylenes separating the amines plays a role in determining polyamine uptake properties. In general the effectiveness with which the analogues compete for uptake is spermidines≈homospermidines>4,5 triamines>5,5 triamines>norspermidine.
# The polyamine derivatives were studied for their ability to compete with [^3H]-SPD for uptake into L1210 cells [Bergeron et al, J. Med. Chem., Vol. 37, supra]. Lineweaver-Burk plots indicated a simple competitive inhibition with respect to SPD.
# L1210 cells [3] = assay: Polyamine pool analysis in L1210 cells; type: cell-based, murine; details: for activity at 100 µM / activity at 500 µM: Mus musculus, L1210, 48 h, % of untreated control; for Analogue: intracellular amount
# Procedure: The following guidelines were adopted for studying the impact of the analogues on polyamine pools (Table 2). The measurements were made after a 48-hour exposure to the analogue, and two different concentrations of analogue were evaluated in each case.
# (§1) The cells were washed twice with cold RPMI-1640, and the pellet was treated with 0.6 N HClO4 (1 ml/10^7 cells). Polyamine contents of the perchloric acid extracts were quantitated by HPLC of the DANSYL derivatives [Bergeron et al, J. Med. Chem., Vol. 37, supra].
# [4] = system: ornithine decarboxylase (ODC); assay: ODC activity in treated L1210 cells; type: cell-based, murine; details: L1210, 1 μM at 4 hours
# Procedure: (§2) On the basis of these studies, it was elected to evaluate the impact of the triamines on ODC and AdoMetDC at 4 and 6 hours, respectively.
# (§3) ODC and AdoMetDC activities were determined as ^14CO2 released from [^14C]-carboxyl-labeled L-ornithine [Seely et al, “Ornithine Decarboxylase (Mouse Kidney),” Methods Enzymol., Vol. 94, pages 158-161 (1983)] or S-adenosyl-L-methionine [Pegg et al, “S-Adenosylmethionine Decarboxylase (Rat Liver),” Methods Enzymol., Vol. 94, pages 234-239 (1983)], respectively. Included in each assay were untreated L1210 cells as controls, as well as cells treated with DEHSPM, a drug having a known reproducible effect on each enzyme, as positive controls.
# [5] = system: S-adenosylmethionine decarboxylase (AdoMetDC); assay: AdoMetDC activity in treated L1210 cells; type: cell-based, murine; details: L1210, 1 μM at 6 hours
# Procedure: as §2, §3
# [6] = system: spermidine/spermine acetyltransferase (SSAT); assay: SSAT activity in treated L1210 cells; type: cell-based, murine; details: L1210, 10 μM at 48 hours (triamine analogues)
# From the text: Spermidine/spermine N^1-acetyltransferase activity was based on quantitation of [^14C]-N^1-acetylspermidine formed by acetylation of SPD with [^14C] acetyl coenzyme A according to the method of Libby et al [Biochem. Pharmacol., Vol. 38, supra]. Cells treated with DENSPM were positive controls.
# L1210 cells [7] = assay: Metabolic transformation of polyamine analogues by L1210 cells; type: in vitro ADME, murine; details: 48 hours
# Procedure: as §1
# [8] = L1210, 48 h, L1210, 48 hour exposure, read-out: IC50 48 hour
# [9] = L1210, 96 h, L1210, 96 hour exposure, read-out: IC50 96 hour
IC50 (L1210 cells [1]; [8]) [µM],IC50 (L1210 cells [1]; [9]) [µM],"Analogue (L1210 cells [3]; 100 μM, 48 hours) [nmol/10^6 cells]","Analogue (L1210 cells [3]; 500 μM, 48 hours) [nmol/10^6 cells]",Parent drug as % of total drug in the cell (L1210 cells [7]; 100 μM analogue) [%],Parent drug in L1210 cells (L1210 cells [7]; 100 μM analogue) [pmols/10^6],SMILES,Ki [2] [µM],"activity at 100 µM (L1210 cells [3]; 100 μM, read-out: Put) [%]","activity at 100 µM (L1210 cells [3]; 100 μM, read-out: Spd) [%]","activity at 100 µM (L1210 cells [3]; 100 μM, read-out: Spm) [%]","activity at 500 µM (L1210 cells [3]; 500 μM, read-out: Put) [%]","activity at 500 µM (L1210 cells [3]; 500 μM, read-out: Spd) [%]","activity at 500 µM (L1210 cells [3]; 500 μM, read-out: Spm) [%]","ODC activity, percent of untreated control [4]","AdoMetDC activity, percent of untreated control [5]","SSAT activity, percent of untreated control [6]",further results
> 100,20 to 35,3.97,4.95,93.9,4238,"CCCNCCCNCCCCN [MPSPD(N1), N^1-Propylspermidine Trihydrochloride]",3,0,25,90,0,15,72,18% of untreated control,56% of untreated control,1200% of untreated control,–
> 100,50 to 60,3.52,5.16,99.3,3549,"CCCNCCCCNCCCN [MPSPD(N8), N^8-Propylspermidine Trihydrochloride]",8.5,0,33,103,0,16,95,14% of untreated control,64% of untreated control,500% of untreated control,"Elaboration to tetraamine (result in words) (L1210 cells [7]; 100 μM analogue, listed as N8-MP-[4,3], Trihydrochloride): no evidence of a tetraamine elaboration metabolite; also recorded: no elaboration of N8-Alkyl [4,3]"

# Further lines, the molecule ahead of its results:
SMILES,IC50 (L1210 cells [1]; [8]) [µM],IC50 (L1210 cells [1]; [9]) [µM],"Analogue (L1210 cells [3]; 100 μM, 48 hours) [nmol/10^6 cells]","Analogue (L1210 cells [3]; 500 μM, 48 hours) [nmol/10^6 cells]",Parent drug as % of total drug in the cell (L1210 cells [7]; 100 μM analogue) [%],Parent drug in L1210 cells (L1210 cells [7]; 100 μM analogue) [pmols/10^6],Ki [2] [µM],"activity at 100 µM (L1210 cells [3]; 100 μM, read-out: Put) [%]","activity at 100 µM (L1210 cells [3]; 100 μM, read-out: Spd) [%]","activity at 100 µM (L1210 cells [3]; 100 μM, read-out: Spm) [%]","activity at 500 µM (L1210 cells [3]; 500 μM, read-out: Put) [%]","activity at 500 µM (L1210 cells [3]; 500 μM, read-out: Spd) [%]","activity at 500 µM (L1210 cells [3]; 500 μM, read-out: Spm) [%]","ODC activity, percent of untreated control [4]","AdoMetDC activity, percent of untreated control [5]","SSAT activity, percent of untreated control [6]",further results
"CCCNCCCCCNCCCCCNCCC [DP(5,5), 4,10,16-Triazanonadecane Trihydrochloride]",> 100,6,0.86,1.33,–,–,87,59,73,97,51,69,103,73% of untreated control,123% of untreated control,90% of untreated control,"PUT reduced by (L1210 cells [3]; 500 μM, 48 hours): 50%; SPD reduced by (L1210 cells [3]; 500 μM, 48 hours): 30%; Parent drug as % of total drug in the cell (L1210 cells [7]; 500 μM analogue): 100%; Parent drug in L1210 cells (L1210 cells [7]; 500 μM analogue): 1300 pmols/10^6; N-Monodealkylation (result in words) (L1210 cells [7]; 500 μM analogue, Trihydrochloride): no metabolic products were found; N-Monodealkylation (result in words) (L1210 cells [7]; 500 μM analogue, listed as DP-[6,5], Trihydrochloride): no N-depropylation"
"CCCNCCCCNCCCCNCCC [DPHSPD, N^1,N^9-Dipropylhomospermidine Trihydrochloride]",> 100,6,3.12,3.68,–,–,67,0,19,144,0,7,111,86% of untreated control,123% of untreated control,420% of untreated control,"Elaboration to tetraamine (result in words) (L1210 cells [7]; 500 μM analogue): elaboration of N-Monoalkyl [4,4]; Parent drug as % of total drug in the cell (L1210 cells [7]; 500 μM analogue): 87.7%; Parent drug in L1210 cells (L1210 cells [7]; 500 μM analogue): 3149 pmols/10^6"
"CCCNCCCNCCCNCCC [DPNSPD, N^1,N^7-Dipropylnorspermidine Trihydrochloride]",> 100,60,0.49,1.24,57.7,404,125,70,76,96,68,71,102,100% of untreated control,99% of untreated control,220% of untreated control,–
"CCNCCCNCCCCN [MESPD(N1), N^1-Ethylspermidine Trihydrochloride]",> 100,3 to 5,4.20,4.73,96.3,3946,8.6,0,25,80,0,14,53,10 (10) percent of untreated control,58% of untreated control,430% of untreated control,–
"CCNCCCCNCCCN [MESPD(N8), N^8-Ethylspermidine Trihydrochloride]",> 100,40,4.41,4.96,99.4,4825,7,0,26,84,0,15,61,17% of untreated control,54% of untreated control,400% of untreated control,"Elaboration to tetraamine (result in words) (L1210 cells [7]; 100 μM analogue, listed as N8-ME-[4,3], Trihydrochloride): no evidence of a tetraamine elaboration metabolite; also recorded: no elaboration of N8-Alkyl [4,3]"
"CCCNCCCNCCCN [MPNSPD, N^1-Propylnorspermidine Trihydrochloride]",> 100,~100,3.07,4.78,94.3,3019,33,0,29,56,0,–,< 50,33% of untreated control,38% of untreated control,470% of untreated control,"Elaboration to tetraamine (result in words) (L1210 cells [7]; 100 μM analogue, listed as MP-[3,3], Trihydrochloride): no evidence of a tetraamine elaboration metabolite; also recorded: no elaboration of N-Monoalkyl [3,3]"
